The source of these data is patent publication US20260355196A1, “INHIBITORS AND DEGRADERS OF PIP4K PROTEIN” (Larkspur Biosciences, Inc., priority 2023, published 2026).

What is called DC50 is the midpoint of the concentration-degradation curve.

Molecules are shown by their SMILES.

The first assay deals with T1, PIP4K2C (Homo sapiens, UniProt Q8TBX8).
T1 sequence (Q8TBX8 1-421): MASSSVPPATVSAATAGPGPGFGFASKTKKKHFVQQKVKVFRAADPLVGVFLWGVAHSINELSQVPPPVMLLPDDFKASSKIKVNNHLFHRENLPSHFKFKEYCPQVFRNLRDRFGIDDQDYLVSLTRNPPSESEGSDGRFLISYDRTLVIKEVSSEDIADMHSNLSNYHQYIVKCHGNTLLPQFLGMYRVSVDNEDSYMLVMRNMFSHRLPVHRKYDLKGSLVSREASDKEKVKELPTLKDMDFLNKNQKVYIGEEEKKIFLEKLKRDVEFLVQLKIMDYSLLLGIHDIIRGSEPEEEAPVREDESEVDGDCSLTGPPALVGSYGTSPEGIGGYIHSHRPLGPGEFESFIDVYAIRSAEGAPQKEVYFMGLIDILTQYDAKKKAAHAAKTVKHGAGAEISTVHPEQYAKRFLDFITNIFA
Briefly: HiBiT PIP4K2C degradation assay in MOLT-4 cells (endogenous PIP4K2C C-terminally tagged with HiBiT). Format: cell-based. Also on record: untagged in primary human PBMCs and monocyte-derived dendritic cells. As to conditions: 6 hours of incubation time, rather than 24 hours; MOLT-4, top concentration 10 micromolar; read-out: HiBIT-degradation MOLT4 PIP4k2C DC50 (6 hours, marked *). The method in brief:
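MOLT-4 cells with endogenous PIP4K2C C-terminally HiBiT-tagged by CRISPR were treated with a 10-point, 3-fold dilution series from 10 micromolar, in duplicate, for 24 h or 6 h at 37 C. Remaining tagged protein read by HiBiT lytic luminescence; DC50 from Hill-equation fit.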
For orientation: The HiBiT peptide binds its large partner to form an active luciferase.
Regarding `O=C1CCC(Nc2ccc(C3CCN([C@H]4CC[C@H](C(=O)N[C@H]5CC[C@H](Nc6ncc(F)c(-c7cccc(N8CCOCC8)c7)n6)CC5)CC4)CC3)c(F)c2)C(=O)N1` (stereo partly drawn) [Compound 659, trans-(1r,4R)-4-(4-(4-((2,6-dioxopiperidin-3-yl)amino)-2-fluorophenyl)piperidin-1-yl)-N-((1r,4R)-4-((5-fluoro-4-(3-morpholinophenyl)pyrimidin-2-yl)amino)cyclohexyl)cyclohexane-1-carboxamide], the DC50 was < 500 nM.

On to `O=C1CCC(Nc2ccc(C3CCN([C@H]4CC[C@H](C(=O)N[C@H]5CC[C@H](Nc6ncc(F)c(-c7cccc(-c8ccccc8)c7)n6)CC5)CC4)CC3)c(F)c2)C(=O)N1` (stereo partly drawn) [Compound 660, trans-(1r,4R)—N-((1r,4R)-4-((4-([1,1′-biphenyl]-3-yl)-5-fluoropyrimidin-2-yl)amino)cyclohexyl)-4-(4-(4-((2,6-dioxopiperidin-3-yl)amino)-2-fluorophenyl)piperidin-1-yl)cyclohexane-1-carboxamide], for which the DC50 is < 500 nM. Same read-out and setting: to `O=C1CCC(Nc2ccc(N3CCN([C@H]4CC[C@H](NC(=O)[C@H]5CC[C@H](Nc6ncc(F)c(-c7cccc(N8CCOCC8)c7)n6)CC5)CC4)CC3)c(F)c2)C(=O)N1` (stereo partly drawn) [Compound 661, trans-(1r,4R)—N-((1r,4R)-4-(4-(4-((2,6-dioxopiperidin-3-yl)amino)-2-fluorophenyl)piperazin-1-yl)cyclohexyl)-4-((5-fluoro-4-(3-morpholinophenyl)pyrimidin-2-yl)amino)cyclohexane-1-carboxamide] belongs < 500 nM. On the same count and under the same terms, then `O=C1CCC(Nc2ccc(N3CCN([C@H]4CC[C@H](NC(=O)[C@H]5CC[C@H](Nc6ncc(F)c(-c7cccc(-c8ccccc8)c7)n6)CC5)CC4)CC3)c(F)c2)C(=O)N1` (stereo partly drawn) [Compound 662, trans-(1r,4R)-4-((4-([1,1′-biphenyl]-3-yl)-5-fluoropyrimidin-2-yl)amino)-N-((1r,4R)-4-(4-(4-((2,6-dioxopiperidin-3-yl)amino)-2-fluorophenyl)piperazin-1-yl)cyclohexyl)cyclohexane-1-carboxamide], with < 500 nM. Regarding `O=C1CCC(Nc2ccc(C3CCN(C(=O)CC4(O)CCN(C(=O)O[C@H]5CC[C@H](Nc6ncc(F)c(-c7cccc(-n8ccccc8=O)c7)n6)CC5)CC4)CC3)c(F)c2)C(=O)N1` (stereo partly drawn) [Compound 663, trans-4-((5-fluoro-4-(3-(2-oxopyridin-1 (2H)-yl)phenyl)pyrimidin-2-yl)amino)cyclohexyl 4-(2-(4-(4-((2,6-dioxopiperidin-3-yl)amino)-2-fluorophenyl)piperidin-1-yl)-2-oxoethyl)-4-hydroxypiperidine-1-carboxylate], the DC50 is < 500 nM. Still for that read-out and setting: then `O=C1CCC(Nc2ccc(N3CCN(C4CCN(C(=O)O[C@H]5CC[C@H](Nc6ncc(F)c(-c7cccc(-c8ccccc8)c7)n6)CC5)CC4)CC3)c(F)c2)C(=O)N1` (stereo partly drawn) [Compound 664, trans-[4-[[5-fluoro-4-(3-phenylphenyl)pyrimidin-2-yl]amino]cyclohexyl]4-[4-[4-[(2,6-dioxo-3-piperidyl)amino]-2-fluoro-phenyl]piperazin-1-yl]piperidine-1-carboxylate], with < 500 nM. Same read-out and setting: then `O=C1CCC(Nc2ccc(C3CCN(CC4(O)CCN(C(=O)[C@H]5CC[C@H](Nc6ncc(F)c(-c7cccc(N8CCOCC8)c7)n6)CC5)CC4)CC3)c(F)c2)C(=O)N1` (stereo partly drawn) [Compound 665, 3-((3-fluoro-4-(1-((1-((trans)-4-((5-fluoro-4-(3-morpholinophenyl)pyrimidin-2-yl)amino)cyclohexane-1-carbonyl)-4-hydroxypiperidin-4-yl)methyl)piperidin-4-yl)phenyl)amino)piperidine-2,6-dione], with < 500 nM; and `O=C1CCC(Nc2ccc(C3CCN(C4CC5(C4)CN(C(=O)O[C@H]4CC[C@H](Nc6ncc(F)c(-c7cccc(-n8ccccc8=O)c7)n6)CC4)C5)CC3)c(F)c2)C(=O)N1` (stereo partly drawn) [Compound 666, (trans)-4-((5-fluoro-4-(3-(2-oxopyridin-1 (2H)-yl)phenyl)pyrimidin-2-yl)amino)cyclohexyl 6-(4-(4-((2,6-dioxopiperidin-3-yl)amino)-2-fluorophenyl)piperidin-1-yl)-2-azaspiro[3.3]heptane-2-carboxylate], with < 500 nM. Still for that read-out and setting: to `O=C1CCC(Nc2ccc(N3CCN(C[C@H]4CC[C@H](C(=O)N5CCC(Nc6ncc(F)c(-c7cccc(N8CCCOC8=O)c7)n6)CC5)CC4)CC3)c(F)c2)C(=O)N1` (stereo partly drawn) [Compound 667, 3-((3-fluoro-4-(4-((trans-4-(4-((5-fluoro-4-(3-(2-oxo-1,3-oxazinan-3-yl)phenyl)pyrimidin-2-yl)amino)piperidine-1-carbonyl)cyclohexyl)methyl)piperazin-1-yl)phenyl)amino)piperidine-2,6-dione] belongs < 500 nM; to `O=C1CCC(Nc2ccc(N3CCC(N4CCN(C(=O)O[C@H]5CC[C@H](Nc6ncc(F)c(-c7cccc(-n8ccccc8=O)c7)n6)CC5)CC4)C(F)C3)c(F)c2)C(=O)N1` (stereo partly drawn) [Compound 668, trans-[4-[[5-fluoro-4-[3-(2-oxo-1-pyridyl)phenyl]pyrimidin-2-yl]amino]cyclohexyl]4-[1-[4-[(2,6-dioxo-3-piperidyl)amino]-2-fluoro-phenyl]-3-fluoro-4-piperidyl]piperazine-1-carboxylate], > 5000 nM; to `O=C1CCC(Nc2ccc(C3CCN(C(=O)C4CCN(C(=O)[C@H]5CC[C@H](Nc6ncc(F)c(-c7cccc(-n8ccccc8=O)c7)n6)CC5)CC4)CC3)c(F)c2)C(=O)N1` (stereo partly drawn) [Compound 669, trans-3-((3-fluoro-4-(1-(1-(4-((5-fluoro-4-(3-(2-oxopyridin-1 (2H)-yl)phenyl)pyrimidin-2-yl)amino)cyclohexane-1-carbonyl)piperidine-4-carbonyl)piperidin-4-yl)phenyl)amino)piperidine-2,6-dione], < 500 nM.

Take `O=C1CCC(Nc2ccc(C3CCN(C[C@H]4CC[C@H](C(=O)N5CCC(Nc6ncc(F)c(-c7cccc(N8CCOCC8)c7)n6)CC5)CC4)CC3)c(F)c2)C(=O)N1` (stereo partly drawn) [Compound 671, trans-3-((3-fluoro-4-(1-((4-(4-((5-fluoro-4-(3-morpholinophenyl)pyrimidin-2-yl)amino)piperidine-1-carbonyl)cyclohexyl)methyl)piperidin-4-yl)phenyl)amino)piperidine-2,6-dione]: the 50% degradation concentration (DC50) is < 500 nM. Still for that read-out and setting: then `O=C1CCC(Nc2ccc(C3CCN(CC4CCN(C(=O)[C@H]5CC[C@H](Nc6ncc(F)c(-c7cccc(N8CCOCC8)c7)n6)CC5)CC4)CC3)c(F)c2)C(=O)N1` (stereo partly drawn) [Compound 672, trans-3-((3-fluoro-4-(1-((1-(4-((5-fluoro-4-(3-morpholinophenyl)pyrimidin-2-yl)amino)cyclohexane-1-carbonyl)piperidin-4-yl)methyl)piperidin-4-yl)phenyl)amino)piperidine-2,6-dione], with < 500 nM.

Staying with this assay, now noted: read-out: HiBIT-degradation MOLT4 PIP4k2C DC50 (6 hours, marked *); 6 hours of incubation time, rather than 24 hours; MOLT-4, top concentration 10 micromolar.
Consider `O=C1CCC(Nc2ccc(N3CCN(C[C@H]4CC[C@H](C(=O)N5CCC(Nc6ncc(F)c(-c7cccc(N8CCOCC8)c7)n6)CC5)CC4)CC3)c(F)c2)C(=O)N1` (stereo partly drawn) [Compound 670, 3-((3-fluoro-4-(4-((trans-4-(4-((5-fluoro-4-(3-morpholinophenyl)pyrimidin-2-yl)amino)piperidine-1-carbonyl)cyclohexyl)methyl)piperazin-1-yl)phenyl)amino) piperidine-2,6-dione], for which the DC50 was > 5000 nM.
